Laboratory results from patent publication US20060014949A1 (SuperGen Inc., priority 2004, published 2006).
In brackets after ≈: the same amount, converted by molar mass.

Tests used:
Format in all cases: physicochemical
[1] = Approximate solubility by solvent aliquot addition, visual inspection; settings: thermodynamic from solid
Description: Solvents were either reagent or HPLC grade. The aliquots were typically either 100 μL or 1 mL. Between additions, the mixture was typically shaken or sonicated. Whether the solids dissolved was judged by visual inspection. Solubilities were estimated from these experiments based on the total solvent used to provide complete dissolution.
Solubilities were estimated from these experiments based on the total solvent used to give a solution. Duplicate runs were averaged.

[2] = Solid-state stress (compression, heating, grinding, storage) with XRPD form check
Description: X-ray powder diffraction analyses were carried out on a Shimadzu XRD-6000 X-ray powder diffractometer using Cu Kα radiation having a wavelength of 1.5406 Å. The instrument is equipped with a fine-focus X-ray tube. The tube power was set by setting potential difference at 40 kV, and current 40 mA. The divergence and scattering slits were set at 1° and the receiving slit was set at 0.15 mm. Diffracted radiation was detected by a NaI scintillation detector. A theta-two theta continuous scan at 3°/min (0.4 sec/0.02° step) from 2.5 to 40 °2θ was performed. A silicon standard was analyzed each day to check the instrument alignment. Each sample was analyzed in a quartz sample holder. A variable temperature (VT-XRPD) experiment was performed on one form. The sample was prepared for analysis by pressing it into a variable temperature holder.

[3] = Moisture sorption/desorption analysis (VTI SGA-100); settings: for solid form after moisture sorption/desorption analysis: after sorption/desorption cycle
Description: Moisture sorption/desorption data were collected on a VTI SGA-100 Vapor Sorption Analyzer. Sorption and desorption data were collected over a range of 5 to 95% relative humidity (RH) at 10% RH increments under a nitrogen purge. Sodium chloride (NaCl) and polyvinylpyrrolidone (PVP) were used as the calibration standards. Equilibrium criteria used for analysis were less than 0.0100% weight change in 5 minutes, with a maximum equilibration time of 180 minutes if the weight criterion was not met. Data collected were not corrected for the initial moisture content of the samples.

[4] = Thermogravimetric analysis (TGA)
Description: Thermogravimetric analysis (TGA) was carried out on TA Instruments TGA 2050 or 2950. The calibration standards were nickel and Alumel™. Samples were placed on a clean, aluminum sample pan, accurately weighed, and inserted into the TGA furnace. The samples were heated in nitrogen at a rate of 10° C./min, from 35° C. to a final temperature of 250° C.

[5] = Relative humidity stress experiments, XRPD after storage over saturated salt solutions
Description: In relative humidity (RH) stress analysis, open vials containing solid samples were placed inside chambers containing saturated salt solutions along with a small amount of the undissolved salt. The chambers were sealed and allowed to stand at ambient temperature for several days. Samples were analyzed by X-ray powder diffraction (XRPD) immediately after removing the sample from the RH chamber. The RH values these salt solutions were obtained from an ASTM standard.

In the case of Nc1ncn([C@H]2C[C@H](O)[C@@H](CO)O2)c(=O)n1 [Decitabine, 5-aza-2′-deoxycytidine], the solubility ([1]; 1,1,1,3,3,3-hexafluoro-2-propanol, organic solvent or mixture, solvent 1,1,1,3,3,3-Hexafluoro-2-propanol) is reported as ~18000 µg/mL (≈ 78.9 mM), the solubility ([1]; 1,1,1-trichloroethane, organic solvent or mixture, solvent 1,1,1-Trichloroethane) is reported as < 1000 µg/mL and the solubility ([1]; 1,4-dioxane, organic solvent or mixture, solvent 1,4-Dioxane) is reported as < 2000 µg/mL. For the same molecule, the solubility ([1]; 2-butanone, organic solvent or mixture, solvent 2-Butanone) was < 1000 µg/mL, the solubility ([1]; 2-propanol, organic solvent or mixture, solvent 2-Propanol) was < 1000 µg/mL and the solubility ([1]; acetone, organic solvent or mixture, solvent Acetone) was < 1000 µg/mL. The solubility ([1]; acetonitrile, organic solvent or mixture, solvent Acetonitrile) was < 1000 µg/mL, the solubility ([1]; chloroform, organic solvent or mixture, solvent Chloroform) was < 1000 µg/mL and the solubility ([1]; dichloromethane, organic solvent or mixture, solvent Dichloromethane) was < 1000 µg/mL. For the same molecule, the solubility ([1]; dichloromethane:ethanol (1:1), organic solvent or mixture, solvent Dichloromethane:Ethanol (1:1)) was < 1000 µg/mL, the solubility ([1]; dichloromethane:methanol (1:1), organic solvent or mixture, solvent Dichloromethane:Methanol (1:1)) was > 1000 µg/mL and the solubility ([1]; diethylamine, organic solvent or mixture, solvent Diethylamine) was < 1000 µg/mL. For the same molecule, the solubility ([1]; ethyl acetate, organic solvent or mixture, solvent Ethyl Acetate) was < 1000 µg/mL, the solubility ([1]; ethyl ether, organic solvent or mixture, solvent Ethyl Ether) was < 1000 µg/mL and the solubility ([1]; hexanes, organic solvent or mixture, solvent Hexanes) was < 1000 µg/mL. The solubility ([1]; methanol:2,2,2-trifluoroethanol (1:1), organic solvent or mixture, solvent Methanol:2,2,2-Trifluoroethanol (1:1)) was > 1000 µg/mL, the solubility ([1]; methanol:water (1:1), aqueous with cosolvent or surfactant or cyclodextrin, solvent Methanol:Water (1:1)) was 4000 µg/mL (≈ 17.5 mM) and the solubility ([1]; methyl sulfide, organic solvent or mixture, solvent Methyl Sulfide) was < 1000 µg/mL. The solubility ([1]; methyl sulfoxide, organic solvent or mixture, solvent Methyl Sulfoxide) was ~37000 µg/mL (≈ 162 mM), the solubility ([1]; nitromethane, organic solvent or mixture, solvent Nitromethane) was < 1000 µg/mL and the solubility ([1]; tetrahydrofuran, organic solvent or mixture, solvent Tetrahydrofuran) was < 1000 µg/mL. For the same molecule, the solubility ([1]; toluene, organic solvent or mixture, solvent Toluene) was < 1000 µg/mL, the solubility ([1]; water, solvent Water) was ~8000 µg/mL (≈ 35.1 mM) and the “XRPD Pattern” value ([2]; no solvent, Hydraulic Press 10,000 lbs ~3 min) was “A + 1 peak”.

In the case of Nc1ncn([C@H]2C[C@H](O)[C@@H](CO)O2)c(=O)n1.O [Form B], the “water regained at 95% RH” value ([3]; 95% RH) is reported as 0.09%, the Weight % chg ([3]; Table 5, desorption, RH 4.98 %, 25.07 deg C, 854.2 min) is reported as −2.2984% and the Weight % chg ([3]; Table 5, desorption, RH 15.05 %, 25.07 deg C, 672.3 min) is reported as 0.0005%. For the same molecule, the Weight % chg ([3]; Table 5, desorption, RH 25.12 %, 25.06 deg C, 665.2 min) was 0.0098%, the Weight % chg ([3]; Table 5, desorption, RH 35.00 %, 25.07 deg C, 658.2 min) was 0.0184% and the Weight % chg ([3]; Table 5, desorption, RH 45.01 %, 25.06 deg C, 650.7 min) was 0.0274%. It also gave a Weight % chg ([3]; Table 5, desorption, RH 55.06 %, 25.06 deg C, 643.2 min) of 0.0357%, a Weight % chg ([3]; Table 5, desorption, RH 65.04 %, 25.07 deg C, 635.7 min) of 0.0439% and a Weight % chg ([3]; Table 5, desorption, RH 75.10 %, 25.06 deg C, 627.7 min) of 0.0553%. For the same molecule, the Weight % chg ([3]; Table 5, desorption, RH 85.33 %, 25.07 deg C, 619.7 min) was 0.0688%, the Weight % chg ([3]; Table 5, sorption, RH 4.98 %, 25.06 deg C, 185.1 min) was −2.3894% and the Weight % chg ([3]; Table 5, sorption, RH 15.24 %, 25.07 deg C, 193.2 min) was −2.4118%. The Weight % chg ([3]; Table 5, sorption, RH 24.84 %, 25.07 deg C, 242.2 min) was −2.2223%, the Weight % chg ([3]; Table 5, sorption, RH 35.00 %, 25.06 deg C, 384.9 min) was −1.2517% and the Weight % chg ([3]; Table 5, sorption, RH 44.84 %, 25.06 deg C, 499.6 min) was −0.5520%. The Weight % chg ([3]; Table 5, sorption, RH 54.81 %, 25.07 deg C, 556.5 min) was −0.1535%, the Weight % chg ([3]; Table 5, sorption, RH 65.01 %, 25.07 deg C, 579.8 min) was −0.0371% and the Weight % chg ([3]; Table 5, sorption, RH 74.89 %, 25.08 deg C, 592.3 min) was 0.0119%. It also gave a Weight % chg ([3]; Table 5, sorption, RH 84.81 %, 25.08 deg C, 601.5 min) of 0.0426%, a Weight % chg ([3]; Table 5, sorption, RH 94.59 %, 25.09 deg C, 613.0 min) of 0.0851% and a Weight % chg ([3]; Table 5, start, RH 2.15 %, 25.08 deg C, 0.0 min) of 0.0000%. It also gave a Weight % chg ([3]; Table 7, desorption, RH 4.96 %, 25.03 deg C, 887.7 min) of −1.6786%, a Weight % chg ([3]; Table 7, desorption, RH 14.79 %, 25.03 deg C, 771.0 min) of 6.1361% and a Weight % chg ([3]; Table 7, desorption, RH 24.87 %, 25.03 deg C, 758.6 min) of 6.2283%. For the same molecule, the Weight % chg ([3]; Table 7, desorption, RH 35.04 %, 25.03 deg C, 749.3 min) was 6.3408%, the Weight % chg ([3]; Table 7, desorption, RH 45.13 %, 25.02 deg C, 739.6 min) was 6.4585% and the Weight % chg ([3]; Table 7, desorption, RH 54.99 %, 25.02 deg C, 725.7 min) was 6.6172%. For the same molecule, the Weight % chg ([3]; Table 7, desorption, RH 65.12 %, 25.03 deg C, 711.7 min) was 6.8321%, the Weight % chg ([3]; Table 7, desorption, RH 75.27 %, 25.03 deg C, 697.2 min) was 7.1750% and the Weight % chg ([3]; Table 7, desorption, RH 85.18 %, 25.03 deg C, 673.5 min) was 7.9222%. It also gave a Weight % chg ([3]; Table 7, sorption, RH 4.95 %, 25.07 deg C, 47.5 min) of −1.4176%, a Weight % chg ([3]; Table 7, sorption, RH 14.98 %, 25.08 deg C, 60.6 min) of −1.3613% and a Weight % chg ([3]; Table 7, sorption, RH 24.93 %, 25.08 deg C, 73.7 min) of −1.2692%. It also gave a Weight % chg ([3]; Table 7, sorption, RH 35.04 %, 25.08 deg C, 94.3 min) of −0.8649%, a Weight % chg ([3]; Table 7, sorption, RH 44.87 %, 25.08 deg C, 116.7 min) of −0.4555% and a Weight % chg ([3]; Table 7, sorption, RH 55.02 %, 25.05 deg C, 298.7 min) of 3.5457%. It also gave a Weight % chg ([3]; Table 7, sorption, RH 65.01 %, 25.05 deg C, 385.9 min) of 6.2129%, a Weight % chg ([3]; Table 7, sorption, RH 74.94 %, 25.05 deg C, 413.2 min) of 6.6223% and a Weight % chg ([3]; Table 7, sorption, RH 85.01 %, 25.05 deg C, 456.7 min) of 7.2160%. The Weight % chg ([3]; Table 7, sorption, RH 95.15 %, 25.03 deg C, 640.2 min) was 11.2538%, the Weight % chg ([3]; Table 7, start, RH 2.94 %, 25.07 deg C, 0.0 min) was 0.0000% and the “solid form after moisture sorption/desorption analysis” value [3] was “a mixture of forms B and form C”. For the same molecule, the “weight (water) lost upon equilibration to 5% RH” value (“weight … to 5% RH” for short) [3] was ~2.4%, the “RH at which the moisture lost at 5% RH is regained” value ([3]; sorption cycle) was “about 44 % RH” and the “TGA Results: percent weight change from 25 to 150° C.” value (from here on “TGA Results: percent weight change”) ([4]; listed as B) was 7.212%. The “TGA Results: percent weight change” value ([4]; listed as form B) was 7.2%, the “XRPD Pattern” value ([2]; Post TGA @ 150° C. 10 min (dry nitrogen)) was “converts to form A” and the “form change in VT-XRPD experiment” value ([2]; heated in the presence of air) was “converted to a mixture of forms B and C”. The “form change on storage” value ([2]; vacuum oven at room temperature for 6 days) was “converts to form C”.

In the case of Nc1ncn([C@H]2C[C@H](O)[C@@H](CO)O2)c(=O)n1 [Form C], the “total weight gain from 5 to 95% RH” value ([3]; 5 to 95% RH) is reported as ~13%, the “solid form after moisture sorption/desorption analysis” value ([3]; listed as form C) is reported as “converts to form B” and the “weight … to 5% RH” value [3] is reported as 1.4%. For the same molecule, the “weight … to 5% RH” value ([3]; listed as form C) was “approximately 1.4%”, the XRPD result ([5]; Magnesium Chloride, 33.1 % RH @ 20° C., 28 days) was “remained unchanged” and the XRPD result ([5]; Potassium Acetate, 23.1 % RH @ 20° C., 25 days) was “converted from form C to form B”. The XRPD result ([5]; Potassium Chloride, 85.1 % RH @ 20° C., 28 days) was “converted from form C to form B”, the “TGA Results: percent weight change” value ([4]; listed as C) was 1.2% and the “TGA Results: percent weight change” value ([4]; listed as form C) was “approximately 1.2%”. The “TGA weight loss at about 150° C.” value ([4]; sample prepared by vacuum evaporation of a solution in water (sample no. 1029-65-05)) was ~7.2% and the “TGA weight loss at about 150° C.” value ([4]; weight equilibrium event at 25° C. omitted from the TGA method) was “approximately 3.2%”.
